# Source: paper PMC10065799, “High-throughput profiling of sequence recognition by tyrosine kinases and SH2 domains using bacterial peptide display” (eLife, 2023)
# Experiments:
# Assay in all cases: pTyr-Var library bacterial peptide display kinase screen (enrichment scores)
# EPHB2 kinase domain = format: biochemical, human; details: sheet EPHB2
# EPHB1 kinase domain = format: biochemical, human; details: for Screen: sheet EPHB1, effect of the variant peptide relative to its reference peptide in the pTyr-Var library screen (enrichment scores); for Screen (variant relative to reference peptide, measured in the pTyr-Var library screen): sheet "EPHB1", variant seq vs reference seq, bacterial peptide display enrichment
# Fer kinase domain = format: biochemical, mouse; details: sheet "Fer"
# c-Src kinase domain = c-Src kinase domain (Homo sapiens, UniProt P12931); format: biochemical; details: sheet "Src";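 further: log2 fold change in enrichment of variant over reference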
# c-Abl kinase domain = molecular target: T1, c-Abl kinase domain (Mus musculus, UniProt P00520); format: biochemical;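 further: log2 fold change in enrichment of variant over reference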
# T1 sequence (P00520 242-493 limits assumed): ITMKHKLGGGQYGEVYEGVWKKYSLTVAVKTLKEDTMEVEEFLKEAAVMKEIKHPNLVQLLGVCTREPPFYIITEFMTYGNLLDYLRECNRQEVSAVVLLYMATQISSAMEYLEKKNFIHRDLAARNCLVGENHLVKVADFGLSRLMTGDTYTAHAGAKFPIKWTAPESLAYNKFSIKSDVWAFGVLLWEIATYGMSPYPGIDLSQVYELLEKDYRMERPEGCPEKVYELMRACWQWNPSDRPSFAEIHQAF
# [1] = effect of variant peptide relative to its reference peptide in the pTyr-Var library screen (enrichment scores)
# [2] = value of the variant peptide against its reference peptide in the pTyr-Var library screen with Fer
# [3] = effect of the variant peptide relative to its reference peptide in the pTyr-Var library screen
# [4] = variant peptide versus its reference peptide in the pTyr-Var library screen
# [5] = variant peptide relative to its reference peptide, pTyr-Var library screen enrichment
# [6] = sheet "Abl", effect of variant peptide relative to its reference peptide in pTyr-Var library screen (enrichment)
# [7] = fig5-data2, sheet "Abl", Screen for the variant/reference peptide pair, pTyr-Var library
# [8] = effect of the variant relative to its reference peptide in the pTyr-Var library screen
sequence,measurement,setting,value
VDGSLYETHPQ [HK1_Y417_K418E],Screen,EPHB2 kinase domain; [1],2.555
same,Screen,EPHB1 kinase domain,1.816
same,Screen,Fer kinase domain; [2],4.441
NVKGIYAVADV [GSR_Y371_G374A],Screen,EPHB2 kinase domain; [1],2.725
same,Screen,c-Src kinase domain; [3],-0.2612
same,Screen,EPHB1 kinase domain,1.714
same,Screen,Fer kinase domain; [2],1.853
KAWGIYDCQQP [CYP3A7_Y75_V71A],Screen,EPHB2 kinase domain; [1],0.8548
same,Screen,c-Src kinase domain; [3],0.09779
same,Screen,EPHB1 kinase domain,0.3477
same,Screen,Fer kinase domain; [2],0.5201
VFLGAYDHFLP [SLC22A5_Y486_R488H_YF],Screen,EPHB2 kinase domain; [1],1.125
same,Screen,c-Src kinase domain; [4],-0.3296
same,"Screen (variant relative to reference peptide, measured in the pTyr-Var library screen)",EPHB1 kinase domain,0.9383
same,Screen,Fer kinase domain; [5],2.03
LVTCSYLLGNS [LMNA_Y646_R644C],Screen,EPHB2 kinase domain; [1],1.308
FAELVYTSFWH [ASS1_Y322_G324S],Screen,EPHB2 kinase domain; [1],0.4289
same,Screen,c-Src kinase domain; [3],-0.03781
same,Screen,EPHB1 kinase domain,0.4613
same,Screen,Fer kinase domain; [2],0.3535
ITNVLYHVVGW [GBA_Y412_L410V],Screen,EPHB2 kinase domain; [1],-1.361
same,Screen,c-Src kinase domain; [3],-0.5492
same,Screen,EPHB1 kinase domain,-1.243
same,Screen,Fer kinase domain; [2],-0.5496
PANMVYSTVEI [SLAMF7_Y304_T302M],Screen,EPHB2 kinase domain; [1],0.9599
same,Screen,c-Src kinase domain; [4],0.01938
same,"Screen (variant relative to reference peptide, measured in the pTyr-Var library screen)",EPHB1 kinase domain,0.5023
same,Screen,Fer kinase domain; [5],-0.2345
NDFGNYSNQSS [HNRNPA1_Y318_N319S],Screen,EPHB2 kinase domain; [1],2.422
same,Screen,EPHB1 kinase domain,4.118
HNLDFYKETTN [FGFR3_Y648_K650E_YF],Screen,EPHB2 kinase domain; [1],-1.243
same,Screen,c-Src kinase domain; [3],-1.013
same,Screen,EPHB1 kinase domain,-0.9671
same,Screen,Fer kinase domain; [2],-1.533
RIGRKYKRVRF [F8_Y442_K444R],Screen,EPHB2 kinase domain; [1],1.084
same,Screen,c-Src kinase domain; [3],3.277
VDGSVYELHPS [GCK_Y413_K414E],Screen,EPHB2 kinase domain; [1],2.546
same,Screen,c-Src kinase domain; [3],1.442
same,Screen,EPHB1 kinase domain,2.239
same,Screen,Fer kinase domain; [2],4.734
LLTKVYVVEGS [ZMPSTE24_Y253_P248L],Screen,c-Abl kinase domain; [6],-5.536
NREGVYTVSAP [TGFBI_Y537_F540S],Screen,EPHB2 kinase domain; [1],-1.97
same,Screen,c-Src kinase domain; [4],-0.08291
same,"Screen (variant relative to reference peptide, measured in the pTyr-Var library screen)",EPHB1 kinase domain,-2.126
same,Screen,Fer kinase domain; [5],-3.034
AEFGLYRAMVR [VSX2_Y222_G223R_YF],Screen,c-Abl kinase domain; [6],2.423
same,Screen,c-Src kinase domain; [4],-2.091
KSRQIYDAFIM [GRK3_Y109_R104K_YF],Screen,EPHB2 kinase domain; [1],1.299
same,Screen,c-Src kinase domain; [3],0.6859
same,Screen,EPHB1 kinase domain,0.9818
same,Screen,Fer kinase domain; [2],0.5964
DENWFYTQAAS [RPS19_Y54_R56Q],Screen,c-Abl kinase domain; [7],0.05995
ADLVQYFMEHH [PTPN11_Y80_E76D_YF],Screen,c-Abl kinase domain; [7],0.02377
ASTHIYQIMNH [ITK_Y588_V587I],Screen,EPHB2 kinase domain; [1],2.415
same,Screen,c-Src kinase domain; [3],0.7541
same,Screen,EPHB1 kinase domain,3.124
same,Screen,Fer kinase domain; [2],2.332
NPQKSYFICLF [WAS_Y83_R86C_YF],Screen,c-Abl kinase domain; [6],3.12
QTSSNYDDAMQ [ZNF281_Y531_I527T],Screen,c-Abl kinase domain; [6],-4.858
LVLIKYLPEWT [PSEN1_Y240_F237L],Screen,c-Abl kinase domain; [7],1.753
MNKNAYHNVTT [ST3GAL6_Y306_A311T],Screen,c-Abl kinase domain; [6],-0.8996
EFSNQYKATIG [RAB7A_Y37_K32E],Screen,c-Abl kinase domain; [7],1.976
FIGVTYKNKED [PDGFRA_Y993_E996K_YF],Screen,c-Abl kinase domain; [7],-0.7207
DCLASYLDKVR [KRT16_Y131_R127C],Screen,c-Abl kinase domain; [7],1.893
MSRFIYSTDFF [NTRK1_Y676_D674Y_YF],Screen,EPHB2 kinase domain; [1],-1.706
same,Screen,c-Src kinase domain; [4],-0.3372
same,Screen,EPHB1 kinase domain,-1.34
same,Screen,Fer kinase domain; [2],-0.8782
SVVVLYEPPEV [TP53_Y220_P219L],Screen,EPHB2 kinase domain; [8],4.006
same,"Screen (variant relative to reference peptide, measured in the pTyr-Var library screen)",EPHB1 kinase domain,3.168
same,Screen,Fer kinase domain; [5],3.283
MLEAPYVDRNS [F10_Y384_V382A],Screen,c-Abl kinase domain; [7],1.1
ADRNHYRRFRR [YBX1_Y145_P149R_YF],Screen,c-Abl kinase domain; [6],-2.647
FEPWVYSLSFE [PRKDC_Y647_F649L_YF],Screen,c-Abl kinase domain; [7],-0.5163
same,Screen,c-Src kinase domain; [4],0.05044
FKEDPYLVVNP [MCM6_Y810_E806K_YF],Screen,c-Abl kinase domain; [7],-1.709
same,Screen,c-Src kinase domain; [3],-0.4166
MENFIYESMQF [CYP19A1_Y361_R365Q_YF],Screen,EPHB2 kinase domain; [1],1.167
same,Screen,c-Src kinase domain; [3],0.1198
same,Screen,EPHB1 kinase domain,0.9498
same,Screen,Fer kinase domain; [2],0.2137
FRAVKYLQMVG [AVPR2_Y117_C112Y_YF],Screen,c-Abl kinase domain; [7],1.48
DHPSEYAARQL [ANXA13_Y90_R86H],Screen,c-Abl kinase domain; [7],0.8208
LTFHMYADPNI [SOS1_Y618_F623I_YF],Screen,EPHB2 kinase domain; [1],0.3507
same,"Screen (variant relative to reference peptide, measured in the pTyr-Var library screen)",EPHB1 kinase domain,0.02693
KNNSIYVLANI [VNN1_Y134_V136L],Screen,c-Abl kinase domain; [6],-3.297
same,Screen,Fer kinase domain; [5],1.88
INITIYGKTFH [EFHC1_Y177_R182H],Screen,c-Abl kinase domain; [7],2.247
VARAVYQAVLS [SMG1_Y549_H546R],Screen,EPHB2 kinase domain; [1],-3.744
same,Screen,c-Src kinase domain; [4],-1.809
same,"Screen (variant relative to reference peptide, measured in the pTyr-Var library screen)",EPHB1 kinase domain,-4.046
same,Screen,Fer kinase domain; [5],-2.673
FDKPVYQKTTE [LDLR_Y828_N825K],Screen,c-Abl kinase domain; [7],0.7779
FRDALYKSMVD [PHEX_Y250_F252S_YF],Screen,c-Abl kinase domain; [7],1.216
EFHRLYEEFTR [PIK3R1_Y467_D464H_YF],Screen,EPHB2 kinase domain; [1],-0.0373
same,Screen,c-Src kinase domain; [4],0.07006
same,Screen,EPHB1 kinase domain,0.6076
same,Screen,Fer kinase domain; [2],-0.6972
FTDPFYDFEIE [ZC3H18_Y372_A368T_YF],Screen,c-Abl kinase domain; [6],2.472
same,Screen,c-Src kinase domain; [4],0.548
same,"Screen (variant relative to reference peptide, measured in the pTyr-Var library screen)",EPHB1 kinase domain,0.9547
RVLQLYGCSPS [ASTL_Y279_K277Q],Screen,EPHB2 kinase domain; [1],1.225
RKLVDYDSAQH [BIN1_Y150_R154Q],Screen,c-Abl kinase domain; [7],-0.7012
DDSNPYINVKL [MTHFD1_Y52_L51P],Screen,c-Abl kinase domain; [7],-0.8391
AALSAYAPQRP [PTPRN2_Y249_A251P],Screen,c-Abl kinase domain; [7],-0.5816
DLQDEYDFKRK [STAT1_Y170_C174R],Screen,c-Abl kinase domain; [6],-1.312
MTFQNYRQALF [FAM20C_Y279_G280R],Screen,EPHB2 kinase domain; [1],-1.483
FVPSNYVAEDR [FRK_Y104_I100V_YF],Screen,c-Abl kinase domain; [7],0.1639
RLAKRYLIWEC [SCN5A_Y694_Q692K],Screen,c-Abl kinase domain; [6],-1.185
ICFSDYVEVAD [PHACTR1_Y525_R521C],Screen,c-Abl kinase domain; [7],1.249
same,Screen,EPHB1 kinase domain,0.304
PSPTKYSLSPS [RANBP2_Y785_R784K],Screen,c-Abl kinase domain; [7],1.871
GFGGGYGGVLT [KRT19_Y65_A60G_YF],Screen,c-Abl kinase domain; [7],-0.6696
RNFGTYTAGLS [RHBDD1_Y264_D262G_YF],Screen,EPHB2 kinase domain; [1],-2.902
same,Screen,EPHB1 kinase domain,-2.368
IVRSPYEDLED [VHL_Y185_L184P],Screen,c-Abl kinase domain; [6],0.8994
SQINLYQDVML [ZNF806_Y33_A28S],Screen,EPHB2 kinase domain; [8],-0.4727
same,"Screen (variant relative to reference peptide, measured in the pTyr-Var library screen)",EPHB1 kinase domain,-0.1927
same,Screen,Fer kinase domain; [5],-0.1473
ISNATYKQIGL [FLT1_Y199_E201Q],Screen,c-Abl kinase domain; [7],-0.6358
MKKMHYVDPDR [ST3GAL5_Y99_H104R],Screen,c-Abl kinase domain; [6],-0.8054
RQQQDYWLKDV [ANPEP_Y600_I603K],Screen,EPHB2 kinase domain; [1],-3.253
same,Screen,EPHB1 kinase domain,-4.233
same,Screen,Fer kinase domain; [2],-2.803
FSMGCYEFSLG [HMGCL_Y198_I200F_YF],Screen,c-Abl kinase domain; [7],1.5
same,Screen,c-Src kinase domain; [3],-0.3724
same,Screen,Fer kinase domain; [2],0.8119
DAAEDYAEGVC [DHODH_Y194_R199C],Screen,c-Abl kinase domain; [7],-0.7613
SSTAMYSAAGR [PSMB1_Y8_P11A],Screen,c-Abl kinase domain; [7],-0.5664
